Results as given in ChEMBL document CHEMBL4813928, “Targeted Isolation of Asperheptatides from a Coral-Derived Fungus Using LC-MS/MS-Based Molecular Networking and Antitubercular Activities of Modified Cinnamate Derivatives” (2021).
Converted amounts (≈) assume the structure as drawn. Square brackets hold non-standard residues; d marks the D form. Peptide text beside a SMILES is read from it.

Each compound was assayed on Mycobacterium tuberculosis (assay: Antitubercular activity against Mycobacterium tuberculosis H37Ra assessed as bacterial growth inhibition relative to parent compound).
Type: functional
`COc1ccc(/C=C/C(=O)OC[C@H]2NC(=O)[C@@H](C(C)C)NC(=O)[C@H](Cc3ccccc3)NC(=O)[C@@H](C(C)C)NC(=O)[C@@H](C)NC(=O)[C@H](CO)NC(=O)[C@@H](Cc3c[nH]c4ccccc34)NC2=O)cc1` was tested, and the “fold change (FC)” value was 10.
`Cc1ccc(/C=C/C(=O)OC[C@@H]2NC(=O)[C@@H](Cc3c[nH]c4ccccc34)NC(=O)[C@@H](COC(=O)/C=C/c3ccc(C)cc3)NC(=O)[C@@H](C(C)C)NC(=O)[C@H](Cc3ccccc3)NC(=O)[C@@H](C(C)C)NC(=O)[C@@H](C)NC2=O)cc1` was tested, and the “fold change (FC)” value was 10.
In the case of `Cc1ccccc1/C=C/C(=O)OC[C@@H]1NC(=O)[C@@H](Cc2c[nH]c3ccccc23)NC(=O)[C@@H](COC(=O)/C=C/c2ccccc2C)NC(=O)[C@@H](C(C)C)NC(=O)[C@H](Cc2ccccc2)NC(=O)[C@@H](C(C)C)NC(=O)[C@@H](C)NC1=O`, the “fold change (FC)” value is reported as 10.
With `CC(C)[C@H]1NC(=O)[C@H](Cc2ccccc2)NC(=O)[C@@H](C(C)C)NC(=O)[C@@H](C)NC(=O)[C@H](COC(=O)/C=C/c2ccc(F)c(F)c2)NC(=O)[C@@H](Cc2c[nH]c3ccccc23)NC(=O)[C@@H](COC(=O)/C=C/c2ccc(F)c(F)c2)NC1=O` the “fold change (FC)” value was 10.

What follows are compounds tested on Mycobacterium tuberculosis (assay: Antitubercular activity against Mycobacterium tuberculosis H37Ra assessed as bacterial growth inhibition).
Type: functional
Compound `CC(C)[C@H]1NC(=O)CNC(=O)[C@H](C)NC(=O)[C@@H](Cc2c[nH]c3ccccc23)NC(=O)[C@@H](CO)NC(=O)[C@@H](C(C)C)NC(=O)[C@H](Cc2ccccc2)NC1=O` has an MIC of 100 µM (≈ 74.7 µg/mL).
With `CC(C)[C@H]1NC(=O)[C@H](Cc2ccccc2)NC(=O)[C@@H](C(C)C)NC(=O)[C@@H](C)NC(=O)[C@H](COC(=O)/C=C/c2ccccc2)NC(=O)[C@@H](Cc2c[nH]c3ccccc23)NC(=O)[C@@H](COC(=O)/C=C/c2ccccc2)NC1=O` the MIC was > 100 µM.
Compound `CC(C)[C@H]1NC(=O)[C@H](Cc2ccccc2)NC(=O)[C@@H](C(C)C)NC(=O)[C@@H](C)NC(=O)[C@H](COC(=O)/C=C/c2ccccc2Cl)NC(=O)[C@@H](Cc2c[nH]c3ccccc23)NC(=O)[C@@H](COC(=O)/C=C/c2ccccc2Cl)NC1=O` has an MIC of 50 µM (≈ 55.3 µg/mL).
For `CC(C)[C@H]1NC(=O)[C@H](Cc2ccccc2)NC(=O)[C@@H](C(C)C)NC(=O)[C@@H](C)NC(=O)[C@H](COC(=O)/C=C/c2ccc(F)cc2)NC(=O)[C@@H](Cc2c[nH]c3ccccc23)NC(=O)[C@@H](COC(=O)/C=C/c2ccc(F)cc2)NC1=O`, the MIC was 50 µM (≈ 53.7 µg/mL).
`COc1ccc(/C=C/C(=O)OC[C@@H]2NC(=O)[C@@H](Cc3c[nH]c4ccccc34)NC(=O)[C@@H](COC(=O)/C=C/c3ccc(OC)c(OC)c3)NC(=O)[C@@H](C(C)C)NC(=O)[C@H](Cc3ccccc3)NC(=O)[C@@H](C(C)C)NC(=O)[C@@H](C)NC2=O)cc1OC` was tested, and the MIC was 100 µM (≈ 116 µg/mL).
Work on `COc1ccc(/C=C/C(=O)OC[C@H]2NC(=O)[C@@H](C(C)C)NC(=O)[C@H](Cc3ccccc3)NC(=O)[C@@H](C(C)C)NC(=O)[C@@H](C)NC(=O)[C@H](CO)NC(=O)[C@@H](Cc3c[nH]c4ccccc34)NC2=O)cc1` yielded an MIC of 12.5 µM (≈ 11.7 µg/mL).
In the case of `CC(C)[C@H]1NC(=O)[C@H](Cc2ccccc2)NC(=O)[C@@H](C(C)C)NC(=O)[C@@H](C)NC(=O)[C@H](COC(=O)/C=C/c2ccc(C(F)(F)F)cc2)NC(=O)[C@@H](Cc2c[nH]c3ccccc23)NC(=O)[C@@H](COC(=O)/C=C/c2ccc(C(F)(F)F)cc2)NC1=O`, the MIC is reported as 100 µM (≈ 117 µg/mL).
`Cc1ccc(/C=C/C(=O)OC[C@@H]2NC(=O)[C@@H](Cc3c[nH]c4ccccc34)NC(=O)[C@@H](COC(=O)/C=C/c3ccc(C)cc3)NC(=O)[C@@H](C(C)C)NC(=O)[C@H](Cc3ccccc3)NC(=O)[C@@H](C(C)C)NC(=O)[C@@H](C)NC2=O)cc1` was tested, and the MIC was 12.5 µM (≈ 13.3 µg/mL).
In the case of `CC(C)[C@H]1NC(=O)[C@H](Cc2ccccc2)NC(=O)[C@@H](C(C)C)NC(=O)[C@@H](C)NC(=O)[C@H](CO)NC(=O)[C@@H](Cc2c[nH]c3ccccc23)NC(=O)[C@@H](CO)NC1=O` (cyclo([dV][dS][dW]S[dA][dV]F)), the MIC is reported as > 100 µM.
`CC(C)[C@H]1NC(=O)[C@H](Cc2ccccc2)NC(=O)[C@@H](C(C)C)NC(=O)[C@@H](C)NC(=O)[C@H](CO)NC(=O)[C@@H](Cc2c[nH]c3ccccc23)NC(=O)[C@@H](COC(=O)/C=C/c2ccc(N(C)C)cc2)NC1=O` showed an MIC of 50 µM (≈ 47.5 µg/mL).
In the case of `CC(C)[C@H]1NC(=O)[C@H](Cc2ccccc2)NC(=O)[C@@H](C(C)C)NC(=O)[C@@H](C)NC(=O)[C@H](COC(=O)/C=C/c2ccc(Cl)cc2)NC(=O)[C@@H](Cc2c[nH]c3ccccc23)NC(=O)[C@@H](COC(=O)/C=C/c2ccc(Cl)cc2)NC1=O`, the MIC is reported as 50 µM (≈ 55.3 µg/mL).
Compound `CC(C)[C@H]1NC(=O)CNC(=O)[C@H](CO)NC(=O)[C@@H](Cc2c[nH]c3ccccc23)NC(=O)[C@@H](CO)NC(=O)[C@@H](C(C)C)NC(=O)[C@H](Cc2ccccc2)NC1=O` (cyclo([dV][dS][dW]SG[dV]F)) has an MIC of 100 µM (≈ 76.3 µg/mL).
For `CO[C@H]1/C=C/O[C@@]2(C)Oc3c(C)c(O)c4c(O)c(c(/C=N/N5CCN(C)CC5)c(O)c4c3C2=O)NC(=O)/C(C)=C\C=C\[C@H](C)[C@H](O)[C@@H](C)[C@@H](O)[C@@H](C)[C@H](OC(C)=O)[C@@H]1C` [RIFAMPIN], the MIC was 0.00625 µM (≈ 0.00514 µg/mL).
For `CC(C)[C@H]1NC(=O)CNC(=O)[C@H](CO)NC(=O)[C@@H](Cc2c[nH]c3ccccc23)NC(=O)[C@@H](C)NC(=O)[C@@H](C(C)C)NC(=O)[C@H](Cc2ccccc2)NC1=O`, the MIC was 100 µM (≈ 74.7 µg/mL).
In the case of `NNC(=O)c1ccncc1` [ISONIAZID], the MIC is reported as 0.0125 µM (≈ 0.00171 µg/mL).
`COc1ccc(/C=C/C(=O)OC[C@@H]2NC(=O)[C@@H](Cc3c[nH]c4ccccc34)NC(=O)[C@@H](COC(=O)/C=C/c3ccc(OC)cc3)NC(=O)[C@@H](C(C)C)NC(=O)[C@H](Cc3ccccc3)NC(=O)[C@@H](C(C)C)NC(=O)[C@@H](C)NC2=O)cc1` gave an MIC of 100 µM (≈ 110 µg/mL).
Work on `COc1cc(/C=C/C(=O)OC[C@@H]2NC(=O)[C@@H](Cc3c[nH]c4ccccc34)NC(=O)[C@@H](COC(=O)/C=C/c3ccc(OCc4ccccc4)c(OC)c3)NC(=O)[C@@H](C(C)C)NC(=O)[C@H](Cc3ccccc3)NC(=O)[C@@H](C(C)C)NC(=O)[C@@H](C)NC2=O)ccc1OCc1ccccc1` yielded an MIC of 100 µM (≈ 131 µg/mL).
`Cc1ccccc1/C=C/C(=O)OC[C@@H]1NC(=O)[C@@H](Cc2c[nH]c3ccccc23)NC(=O)[C@@H](COC(=O)/C=C/c2ccccc2C)NC(=O)[C@@H](C(C)C)NC(=O)[C@H](Cc2ccccc2)NC(=O)[C@@H](C(C)C)NC(=O)[C@@H](C)NC1=O` gave an MIC of 12.5 µM (≈ 13.3 µg/mL).
Work on `COc1cc(Br)c(/C=C/C(=O)OC[C@@H]2NC(=O)[C@@H](Cc3c[nH]c4ccccc34)NC(=O)[C@@H](COC(=O)/C=C/c3cc(OC)c(OC)cc3Br)NC(=O)[C@@H](C(C)C)NC(=O)[C@H](Cc3ccccc3)NC(=O)[C@@H](C(C)C)NC(=O)[C@@H](C)NC2=O)cc1OC` yielded an MIC of 100 µM (≈ 132 µg/mL).
In the case of `COc1cc(/C=C/C(=O)OC[C@H]2NC(=O)[C@@H](C(C)C)NC(=O)[C@H](Cc3ccccc3)NC(=O)[C@@H](C(C)C)NC(=O)[C@@H](C)NC(=O)[C@H](CO)NC(=O)[C@@H](Cc3c[nH]c4ccccc34)NC2=O)ccc1OCc1ccccc1`, the MIC is reported as 50 µM (≈ 52.2 µg/mL).
For `CC(C)[C@H]1NC(=O)[C@H](Cc2ccccc2)NC(=O)[C@@H](C(C)C)NC(=O)[C@@H](C)NC(=O)[C@H](CO)NC(=O)[C@@H](Cc2c[nH]c3ccccc23)NC(=O)[C@@H](COC(=O)/C=C/c2ccccc2)NC1=O`, the MIC was > 100 µM.
Compound `COc1cc(Br)c(/C=C/C(=O)OC[C@H]2NC(=O)[C@@H](C(C)C)NC(=O)[C@H](Cc3ccccc3)NC(=O)[C@@H](C(C)C)NC(=O)[C@@H](C)NC(=O)[C@H](CO)NC(=O)[C@@H](Cc3c[nH]c4ccccc34)NC2=O)cc1OC` has an MIC of 50 µM (≈ 52.3 µg/mL).
Compound `CC(C)[C@H]1NC(=O)[C@H](Cc2ccccc2)NC(=O)[C@@H](C(C)C)NC(=O)[C@@H](C)NC(=O)[C@H](COC(=O)/C=C/c2ccc(N(C)C)cc2)NC(=O)[C@@H](Cc2c[nH]c3ccccc23)NC(=O)[C@@H](COC(=O)/C=C/c2ccc(N(C)C)cc2)NC1=O` has an MIC of 50 µM (≈ 56.2 µg/mL).
`CC(C)[C@H]1NC(=O)[C@H](Cc2ccccc2)NC(=O)[C@@H](C(C)C)NC(=O)[C@@H](C)NC(=O)[C@H](COC(=O)/C=C/c2ccc(F)c(F)c2)NC(=O)[C@@H](Cc2c[nH]c3ccccc23)NC(=O)[C@@H](COC(=O)/C=C/c2ccc(F)c(F)c2)NC1=O` was tested, and the MIC was 12.5 µM (≈ 13.9 µg/mL).
`CC(C)[C@H]1NC(=O)[C@H](Cc2ccccc2)NC(=O)[C@@H](C(C)C)NC(=O)[C@@H](C)NC(=O)[C@H](COC(=O)/C=C/c2cccc(Cl)c2)NC(=O)[C@@H](Cc2c[nH]c3ccccc23)NC(=O)[C@@H](COC(=O)/C=C/c2cccc(Cl)c2)NC1=O` gave an MIC of 100 µM (≈ 111 µg/mL).
Compound `CC(C)[C@H]1NC(=O)[C@H](Cc2ccccc2)NC(=O)[C@@H](C(C)C)NC(=O)[C@@H](C)NC(=O)[C@H](C)NC(=O)[C@@H](Cc2c[nH]c3ccccc23)NC(=O)[C@@H](C)NC1=O` (cyclo([dV][dA][dW]A[dA][dV]F)) has an MIC of 100 µM (≈ 74.5 µg/mL).
